Results on 32 compounds are retold here after patent US10898469B2, “Imidazolylamide derivative” (Sumitomo Dainippon Pharma Co., Ltd., priority 2016, dated 2021).

What all share (type): cell-based, human
In assay [1] the test system is HCT-116 cells. The assay can be described thus: Inhibition test for sphere-forming ability of cancer cells (Test Example 1), HCT-116. The note with it: for IC50: read-out: IC50 (μmol/L) HCT-116 (Sphere IC50 value); for inhibitory effect on the sphere-forming ability of cancer cells: Test Example 1, summary in words, cell line not given (HCT-116, HT-29, FaDu tested). An excerpt:
(§1) The reliable methods established for measuring the self-renewal ability of cells which is one of the CSC's properties include a method for measuring the sphere-forming ability of cancer cells in non-adherent condition in the absence of serum (Cancer Res 65, 5506-5511 (2005)). Human colorectal cancer-derived HCT-116 cells, human colon-adenocarcinoma-derived HT-29 cells, and human pharyngeal cancer-derived FaDu cells were available from American Type Culture Collection (ATCC). HCT-116 cells and HT-29 cells were cultured at 37° C. under 5% CO2 using the McCoy's 5a medium containing 10% fetal bovine serum (FBS) and 1% penicillin/streptomycin, and FaDu cells were cultured at 37° C. under 5% CO2 using the MEM medium containing 10% FBS, 1% non-essential amino acid, 1% sodium pyruvate, and 1% penicillin/streptomycin. HCT-116 cells, HT-29 cells, and FaDu cells were seeded in a 384 Well Black Clear Bottom Ultra-Low Attachment Microplate (Corning Cat. No. 3827) in an amount of 350-800 cells/well using the DMEM/F12 medium containing 2% B27 supplement (GIBCO), 20 ng/mL epidermal growth factor (EGF) (peprotech), 10 ng/mL basic fibroblast growth factor (bFGF) (peprotech), 5 μg/mL insulin (Sigma), and 1% penicillin/streptomycin. Each test compound was added into each well to adjust the final concentration of DMSO to 0.1%, and the cells were cultured for 4 days. The number of viable cells in each well was then measured with CellTiter-Glo® Luminescent Cell Viability Assay (Promega) to calculate the concentration of each test compound for 50% inhibition of cell proliferation (Sphere IC50 value; μmol/L).
(§2) The experiment of Test Example 1 was performed for each compound of each Example. The concentration of each test compound for 50% inhibition of cell proliferation (Sphere IC50 value; μmol/L) is shown in the following Table.

The test system of assay [2] is HT-29 cells. The experiment in a line: Inhibition test for sphere-forming ability of cancer cells (Test Example 1), HT-29. The note with it: concentration for 50% inhibition of cell proliferation; for IC50: read-out: IC50 (μmol/L) HT-29 (Sphere IC50 value).
Text: as §1, §2

The subject of assay [3] is FaDu cells. The assay can be described thus: Inhibition test for sphere-forming ability of cancer cells (Test Example 1), FaDu. The note with it: concentration for 50% inhibition of cell proliferation; for IC50: read-out: IC50 (μmol/L) FaDu (Sphere IC50 value).
Text: as §1, §2

The mark [4] stands for this setting: HCT-116 cells, concentration for 50% inhibition of cell proliferation.
[5] abbreviates: Homo sapiens, HCT-116 cells, concentration for 50% inhibition of cell proliferation.

Read-outs that look alike come from different tables or passages of the source.

`COc1cc(/C=C/C(=O)Nc2cn(Cc3cccc(Cl)c3)cn2)cc(OC)c1OC` [Example 82]: the figures for the IC50 in assay [1] (setting [4]), in assay [2] and in assay [3] were 6.51 µmol/L, 0.99 µmol/L and 1.76 µmol/L, respectively.
For the compound `O=C(/C=C/c1cc(Cl)ccc1Cl)Nc1cn(Cc2cccc(Cl)c2)cn1` [Example 83], the IC50 in assay [1] (setting [4]) worked out at 0.8 µmol/L; in assay [2], 0.6 µmol/L; in assay [3], 0.91 µmol/L.
For the compound `O=C(/C=C/c1ccc(O)cc1)Nc1cn(Cc2cccc(Cl)c2)cn1` [Example 84], the IC50 in assay [1] (setting [4]) came out at 0.59 µmol/L; in assay [2] it was 0.52 µmol/L; in assay [3] it was 0.68 µmol/L.
In the case of `COc1cc(/C=C/C(=O)Nc2cn(Cc3cccc(Cl)c3)cn2)cc(OC)c1` [Example 85], the “IC50 (μmol/L) HCT-116 (Sphere IC50 value)” value in assay [1] (setting [4]) was found to be 17.96 µmol/L. Besides, in assay [2], the “IC50 (μmol/L) HT-29 (Sphere IC50 value)” value is 25.90 µmol/L. Further, in assay [3], the “IC50 (μmol/L) FaDu (Sphere IC50 value)” value was 13.73 µmol/L.
On to `O=C(/C=C/c1ccco1)Nc1cn(Cc2cccc(Cl)c2)cn1` [Example 87], for which the values for the IC50 in assay [1] (setting [4]), in assay [2] and in assay [3] were 2.37 µmol/L, 5.53 µmol/L and 5.14 µmol/L, respectively.
Turning to `O=C(/C=C/c1ccoc1)Nc1cn(Cc2cccc(Cl)c2)cn1` [Example 88], the IC50 in assay [1] (setting [4]) was 0.88 µmol/L; in assay [2] it was 0.83 µmol/L; in assay [3], 0.91 µmol/L.
For `O=C(/C=C/c1c[nH]c2ccccc12)Nc1cn(Cc2cccc(Cl)c2)cn1` [Example 89], in that order: 0.96 µmol/L, 0.61 µmol/L and 0.04 µmol/L.
With `O=C(/C=C/c1c[nH]cn1)Nc1cn(Cc2cccc(Cl)c2)cn1` [Example 90], the results for the IC50 in assay [1] (setting [4]), in assay [2] and in assay [3] were 8.17 µmol/L, 7.87 µmol/L and 6.32 µmol/L, respectively.
The matching figures for `Cc1ccncc1/C=C/C(=O)Nc1cn(Cc2cccc(Cl)c2)cn1` [Example 91]: 7.51 µmol/L, 4.5 µmol/L and 6.15 µmol/L.
The matching figures for `O=C(/C=C/c1cnc2ccccc2c1)Nc1cn(Cc2cccc(Cl)c2)cn1` [Example 92]: 1.61 µmol/L, 0.62 µmol/L and 0.74 µmol/L.
As to `Cc1cc(/C=C/C(=O)Nc2cn(Cc3cccc(Cl)c3)cn2)oc1C` [Example 93], the IC50 was 0.82 µmol/L in assay [1] (setting [4]), 4.93 µmol/L in assay [2] and 0.09 µmol/L in assay [3]. Further, the “inhibitory effect on the sphere-forming ability of cancer cells” value (“inhibitory effect” for short) in assay [1] is recorded as “particularly potent inhibitory effect”.
With `O=C(/C=C/c1cccs1)Nc1cn(Cc2cccc(Cl)c2)cn1` [Example 94], the IC50 in assay [1] (setting [4]) worked out at 7.88 µmol/L; in assay [2], 0.97 µmol/L; in assay [3], 4.57 µmol/L.
The matching figures for `O=C(/C=C/c1ccc2ccccc2c1)Nc1cn(Cc2cccc(Cl)c2)cn1` [Example 95]: over 10 µmol/L, 3.23 µmol/L and 0.99 µmol/L.
Turning to `O=C(/C=C/c1ccc(N2CCOCC2)cc1)Nc1cn(Cc2cccc(Cl)c2)cn1` [Example 96], the results for the IC50 in assay [1] (setting [4]), in assay [2] and in assay [3] were 0.83 µmol/L, 0.09 µmol/L and 0.07 µmol/L, respectively. In addition, the “inhibitory effect” value in assay [1] is “particularly potent inhibitory effect”.
In the case of `O=C(/C=C/c1ccncc1)Nc1cn(Cc2cccc(Cl)c2)cn1` [Example 97], the IC50 came to 0.08 µmol/L in assay [1] (setting [4]), 0.05 µmol/L in assay [2] and 0.06 µmol/L in assay [3]. In assay [1], the “inhibitory effect” value is reported as “particularly potent inhibitory effect”.
With `O=C(/C=C/c1ccccn1)Nc1cn(Cc2cccc(Cl)c2)cn1` [Example 98], the IC50 is over 10 µmol/L in assay [1] (setting [4]), 7.58 µmol/L in assay [2] and 7.75 µmol/L in assay [3].
With `O=C(/C=C/c1cccnc1)Nc1cn(Cc2cccc(C(F)(F)F)c2)cn1` [Example 103], the IC50 was 0.87 µmol/L in assay [1] (setting [5]), 0.6 µmol/L in assay [2] (Homo sapiens) and 0.6 µmol/L in assay [3] (Homo sapiens).
Turning to `O=C(/C=C/c1cccc(Oc2ccccc2)c1)Nc1cn(Cc2cccc(C(F)(F)F)c2)cn1` [Example 104], the results for the IC50 in assay [1] (setting [5]), in assay [2] (Homo sapiens) and in assay [3] (Homo sapiens) were 2.09 µmol/L, 0.79 µmol/L and 2.7 µmol/L, respectively.
The matching figures for `Cc1cccc(/C=C/C(=O)Nc2cn(Cc3cccc(C(F)(F)F)c3)cn2)c1` [Example 105]: 5.05 µmol/L, 0.94 µmol/L and 0.85 µmol/L.
For `O=C(Nc1cn(Cc2cccc(C(F)(F)F)c2)cn1)/C(F)=C/c1cccnc1` [Example 106], in that order: 8.29 µmol/L, 0.8 µmol/L and 3.06 µmol/L.
For `CCOc1ccc(/C=C/C(=O)Nc2cn(Cc3cccc(C(F)(F)F)c3)cn2)cn1` [Example 107], in that order: over 10 µmol/L, 0.04 µmol/L and 0.07 µmol/L.
In the case of `O=C(/C=C/c1cccc(Oc2ccccc2)c1)Nc1cn(Cc2cccc(OC(F)(F)F)c2)cn1` [Example 108], the IC50 was 3.31 µmol/L in assay [1] (setting [5]), 3.43 µmol/L in assay [2] (Homo sapiens) and 9.77 µmol/L in assay [3] (Homo sapiens).
For `O=C(/C=C/c1cccnc1)Nc1cn(Cc2cccc(OC(F)(F)F)c2)cn1` [Example 109], in that order: 2.65 µmol/L, 0.75 µmol/L and 0.67 µmol/L.
The matching figures for `Cc1cccc(/C=C/C(=O)Nc2cn(Cc3cccc(OC(F)(F)F)c3)cn2)c1` [Example 110]: 7.21 µmol/L, 5.67 µmol/L and 1.92 µmol/L.
The matching figures for `O=C(Nc1cn(Cc2cccc(OC(F)(F)F)c2)cn1)/C(F)=C/c1cccnc1` [Example 111]: 9.31 µmol/L, 0.83 µmol/L and 0.99 µmol/L.
In the case of `CCOc1ccc(/C=C/C(=O)Nc2cn(Cc3cccc(OC(F)(F)F)c3)cn2)cn1` [Example 112], the IC50 in assay [1] (setting [5]) was over 10 µmol/L; in assay [2] (Homo sapiens), 0.04 µmol/L; in assay [3] (Homo sapiens), 0.07 µmol/L. In addition, the “inhibitory effect” value in assay [1] is recorded as “particularly potent inhibitory effect”.
In the case of `Cc1ccc(F)c(Cn2cnc(NC(=O)/C=C/c3cccnc3)c2)c1F` [Example 113], the IC50 is 0.54 µmol/L in assay [1] (setting [5]), 0.53 µmol/L in assay [2] (Homo sapiens) and over 10 µmol/L in assay [3] (Homo sapiens).
For `Cc1ccc(F)c(Cn2cnc(NC(=O)/C=C/c3cccc(Oc4ccccc4)c3)c2)c1F` [Example 114], in that order: 0.62 µmol/L, 0.69 µmol/L and 0.72 µmol/L.
For `Cc1cccc(/C=C/C(=O)Nc2cn(Cc3c(F)ccc(C)c3F)cn2)c1` [Example 115], in that order: 0.79 µmol/L, 0.66 µmol/L and 0.79 µmol/L.
As for `Cc1ccc(F)c(Cn2cnc(NC(=O)/C(F)=C/c3cccnc3)c2)c1F` [Example 116], the IC50 in assay [1] (setting [5]) is over 10 µmol/L; in assay [2] (Homo sapiens), 0.8 µmol/L; in assay [3] (Homo sapiens), 0.93 µmol/L.
Regarding `COc1ccc(/C=C/C(=O)Nc2cn(Cc3cccc(Cl)c3)cn2)cc1` [Example 118, (E)-N-(1-(3-Chlorobenzyl)-1H-imidazol-4-yl)-3-(4-methoxyphenyl)acrylamide], the figures for the IC50 in assay [1] (setting [5]), in assay [2] (Homo sapiens) and in assay [3] (Homo sapiens) were 0.1 µmol/L, under 0.01 µmol/L and 0.07 µmol/L, respectively. Moreover, the “inhibitory effect” value in assay [1] was “particularly potent inhibitory effect”.
For `O=C(/C=C/c1ccsc1)Nc1cn(Cc2cccc(Cl)c2)cn1` [Example 119], the IC50 in assay [1] (setting [5]) amounted to 0.67 µmol/L; in assay [2] (Homo sapiens), 0.16 µmol/L; in assay [3] (Homo sapiens), 0.56 µmol/L.
